Data published in PubChem BioAssay AID248 (DTP/NCI, 2004).
“And” between values parts separate entries of the source, which are not always exact repeats. Equal values may be shown once. Inconclusive results and toxic doses are left out. Cut-off read from the data, not from the text of the source: active = T/C of 150% or more; inactive = T/C below 125%.

Test system: L1210 leukemia ip in BDF1 mice, survival T/C
Assay: NCI In Vivo Anticancer Drug Screen. Data for tumor model L1210 Leukemia (intraperitoneal) in B6D2F1 (BDF1) mice
Settings: endpoint: mean survival time, higher = longer survival
Procedure, shortened: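 Ratio derived from survival: compound-dosed mice over vehicle-dosed mice, all bearing a transplantable tumor.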

[1] = dose: 100.0 mg/kg/injection, schedule: Q01DX009 (ip), vehicle: Klucel (hydroxypropylcellulose) (HPC)
[2] = dose: 200.0 mg/kg/injection, schedule: Q01DX009 (ip), vehicle: Klucel (hydroxypropylcellulose) (HPC)
[3] = dose: 400.0 mg/kg/injection, schedule: Q01DX009 (ip), vehicle: Klucel (hydroxypropylcellulose) (HPC)
[4] = dose: 100.0 mg/kg/injection, schedule: Q01DX009 (ip), vehicle: saline with Tween-80
[5] = dose: 200.0 mg/kg/injection, schedule: Q01DX009 (ip), vehicle: saline with Tween-80
[6] = dose: 400.0 mg/kg/injection, schedule: Q01DX009 (ip), vehicle: saline with Tween-80
[7] = dose: 200.0 mg/kg/injection, schedule: Q01DX001 (ip), vehicle: saline
[8] = dose: 400.0 mg/kg/injection, schedule: Q01DX001 (ip), vehicle: saline
[9] = dose: 150.0 mg/kg/injection, schedule: Q01DX001 (ip), vehicle: saline

Measured: T/C

O=C1C(=O)c2ccccc2-c2ccccc21.O=C1C(=O)c2ccccc2-c2ccccc21.[Hg]
inactive: dose: 6.25 mg/kg/injection, schedule: Q04DX003 (ip), vehicle: saline with Tween-80 95 % of control

CS(=O)(=O)OCC1CC=CCC1COS(C)(=O)=O (configuration not stated)
inactive: [1] 96 % of control | [2] 102 % of control | [3] 94 % of control

O=C(NCC[N+](=O)[O-])c1ccccc1
inactive: dose: 50.0 mg/kg/injection, schedule: Q01DX009 (ip), vehicle: saline 97 % of control | dose: 100.0 mg/kg/injection, schedule: Q01DX009 (ip), vehicle: saline 93 % of control | dose: 100.0 mg/kg/injection, schedule: Q04DX003 (ip), vehicle: saline 92 % of control | dose: 200.0 mg/kg/injection, schedule: Q01DX009 (ip), vehicle: saline 95 % of control | dose: 200.0 mg/kg/injection, schedule: Q04DX003 (ip), vehicle: saline 96 % of control | dose: 400.0 mg/kg/injection, schedule: Q04DX003 (ip), vehicle: saline 100 % of control

CCN(CC)c1ccc(C(=O)c2ccc(N(CC)CC)cc2)cc1
inactive: dose: 15.0 mg/kg/injection, schedule: Q01DX Z (ip), vehicle: carboxymethylcellulose (CMC) 88 % of control | dose: 30.0 mg/kg/injection, schedule: Q01DX Z (ip), vehicle: carboxymethylcellulose (CMC) 92 % of control | dose: 60.0 mg/kg/injection, schedule: Q01DX Z (ip), vehicle: carboxymethylcellulose (CMC) 92 % of control and 95 % of control | dose: 120.0 mg/kg/injection, schedule: Q01DX Z (ip), vehicle: carboxymethylcellulose (CMC) 94 % of control and 100 % of control | dose: 240.0 mg/kg/injection, schedule: Q01DX Z (ip), vehicle: carboxymethylcellulose (CMC) 100 % of control | dose: 480.0 mg/kg/injection, schedule: Q01DX Z (ip), vehicle: carboxymethylcellulose (CMC) 118 % of control

CCN(CC)CCNC(=O)c1ccc(N=Cc2cc(Cl)cc(Cl)c2O)cc1
inactive: [1] 100 % of control | [2] 96 % of control

CC[N+]1(CC)N=C([O-])N(C)C1=O
inactive: [4] 101 % of control | [5] 101 % of control | [6] 103 % of control

O=CCC1C=CCC1 (configuration not stated)
inactive: dose: 75.0 mg/kg/injection, schedule: Q01DX001 (ip), vehicle: carboxymethylcellulose (CMC) 101 % of control | dose: 150.0 mg/kg/injection, schedule: Q01DX001 (ip), vehicle: carboxymethylcellulose (CMC) 103 % of control

CCCCCCCC(=O)Nc1ccc(C)c(C)c1
inactive: dose: 100.0 mg/kg/injection, schedule: Q04DX003 (ip), vehicle: saline with Tween-80 93 % of control | dose: 200.0 mg/kg/injection, schedule: Q04DX003 (ip), vehicle: saline with Tween-80 98 % of control | dose: 400.0 mg/kg/injection, schedule: Q04DX003 (ip), vehicle: saline with Tween-80 93 % of control

O=C1c2ccccc2C(=O)c2c(O)c([N+](=O)[O-])cc([N+](=O)[O-])c21
inactive: dose: 100.0 mg/kg/injection, schedule: Q01DX001 (ip), vehicle: saline 98 % of control | [7] 104 % of control | [8] 100 % of control

CC1=CSCC(=O)N1
inactive: [4] 97 % of control | [5] 101 % of control | [6] 105 % of control

NC(=O)c1cc(Cl)ccc1N
inactive: dose: 100.0 mg/kg/injection, schedule: Q01DX001 (ip), vehicle: other 97 % of control | dose: 200.0 mg/kg/injection, schedule: Q01DX001 (ip), vehicle: other 97 % of control | dose: 400.0 mg/kg/injection, schedule: Q01DX001 (ip), vehicle: other 105 % of control

O=C1NC2(C=CC(Br)CC2)C(=O)C12CCCCC2 (configuration not stated) (tested in a mixture with another compound)
inactive: [9] 94 % of control

O=C1Cc2ccccc2C(C(=O)O)O1 (configuration not stated)
inactive: dose: 75.0 mg/kg/injection, schedule: Q01DX001 (ip), vehicle: saline 107 % of control | [9] 101 % of control | dose: 300.0 mg/kg/injection, schedule: Q01DX001 (ip), vehicle: saline 107 % of control

CC(O)CC(C)(C)c1ccccc1 (configuration not stated)
inactive: dose: 50.0 mg/kg/injection, schedule: Q01DX009 (ip), vehicle: saline with Tween-80 93 % of control | [4] 93 % of control | [5] 89 % of control

O=C(Nc1ccccc1F)Oc1cccc2ccccc12
inactive: [4] 113 % of control | [5] 109 % of control | [6] 87 % of control

Clc1ccc(/C(=N\OC(c2ccccc2)c2ccccc2)c2ccccc2)cc1
inactive: [7] 86 % of control | [8] 87 % of control

CC1=C/C(=N\N=C2/C=C(C)CC(C)(C)C2)CC(C)(C)C1
inactive: [1] 95 % of control | [2] 105 % of control | [3] 100 % of control

N#CCC1=Cc2ccccc2CC1
inactive: dose: 6.25 mg/kg/injection, schedule: Q01DX005 (ip), vehicle: saline 109 % of control | dose: 12.5 mg/kg/injection, schedule: Q01DX005 (ip), vehicle: saline 102 % of control | dose: 25.0 mg/kg/injection, schedule: Q01DX005 (ip), vehicle: saline 102 % of control | dose: 50.0 mg/kg/injection, schedule: Q01DX005 (ip), vehicle: saline 106 % of control and 107 % of control

CC(=O)OCCc1ccc2c(c1)OCO2
inactive: dose: 100.0 mg/kg/injection, schedule: Q04DX002 (ip), vehicle: Klucel (hydroxypropylcellulose) (HPC) 97 % of control | dose: 200.0 mg/kg/injection, schedule: Q04DX002 (ip), vehicle: Klucel (hydroxypropylcellulose) (HPC) 112 % of control | dose: 400.0 mg/kg/injection, schedule: Q04DX002 (ip), vehicle: Klucel (hydroxypropylcellulose) (HPC) 115 % of control
